# From patent US20260363251A1 (priority 2022, published 2026)
# Columns and labels:
# Oculimacula yallundae = experiment: Treatment of eyespot on wheat (Table 15); format: in vivo; details: 1 d preventive, 200 L/ha, 450 g/ha
# Mycosphaerella fijiensis = experiment: Treatment of black Sigatoka on banana (Table 10); format: in vivo; details: 1 d preventive, 400 L/ha, 75 g/ha, 63DAI, + 0.9% Orchex 796 + 0.1% Emulsogen M
# Fusarium avenaceum = format: in vivo; details: 1 d preventive, 220 L/ha, 125 g/ha, 14DAI
# Fusarium graminearum = format: in vivo; details: 1 d preventive, 220 L/ha, 125 g/ha, 7DAI
# Fusarium virguliforme = experiment: Seed treatment, soilborne Fusarium virguliforme in soybean in the greenhouse (Example 4.2); details: FS500, 40 g ai per 100 kg seeds; disease index vs infected control
# Zymoseptoria tritici [1] = experiment: Preventive and curative treatment of Zymoseptoria tritici on wheat (Table 8); format: in vivo; details: 200 L/ha, 17DAI
# Puccinia recondita [2] = experiment: Preventive and curative treatment of Puccinia recondita on wheat (Table 8); format: in vivo; details: 200 L/ha
# Puccinia striiformis = experiment: Treatment of wheat infected with yellow rust Puccinia striiformis (Table 9); format: in vivo; details: 200 L/ha
# [3] = test system: Blumeria graminis f.sp. tritici; experiment: Treatment of powdery mildew on wheat (Table 12); format: in vivo; details: 1 d preventive, 200 L/ha, 27 g/ha, 7DAI
# Alternaria solani = experiment: Treatment of early blight on tomato (Table 13); format: in vivo; details: 1 d preventive, 400 L/ha, 4DAI
# [4] = test system: Colletotrichum lagenarium; experiment: Treatment of anthracnose on cucumber (Table 13); format: in vivo; details: 1 d preventive, 400 L/ha, 5DAI
# Mycosphaerella arachidis = experiment: Treatment of early leaf spots on groundnut (Table 13); format: in vivo; details: 1 d preventive, 400 L/ha, 11DAI
# Ramularia collo-cygni = experiment: Treatment of ramularia leaf spot on barley (Table 14); format: in vivo; details: 1 d preventive, 200 L/ha, 20DAI
# Parastagonospora nodorum = experiment: Treatment of glume blotch on wheat (Table 14); format: in vivo; details: 1 d preventive, 200 L/ha, 7DAI
# Rhynchosporium secalis = experiment: Treatment of scald on barley (Table 14); format: in vivo; details: 1 d preventive, 200 L/ha, 15DAI
# Zymoseptoria tritici [5] = experiment: Treatment of Zymoseptoria tritici on wheat beyond the treated area (Table 16); format: in vivo; details: 188 ppm, 17DAI
# Puccinia recondita [6] = experiment: Treatment of Puccinia recondita on wheat beyond the treated area (Table 16); format: in vivo; details: 188 ppm, 11DAI
compound,measurement,setting,value
Cc1cc(C2CC2)nc(Nc2ccccc2)n1 [Cyprodinil],disease symptom reduction (%) vs. Untreated,Oculimacula yallundae,56%
CON(C(=O)c1cn(C)nc1C(F)F)C(C)Cc1c(Cl)cc(Cl)cc1Cl (stereo not shown) [Pydiflumetofen],disease symptom reduction (%) vs. Untreated,Mycosphaerella fijiensis,97%
same,disease symptom reduction (%) vs. Untreated,Fusarium avenaceum,96%
same,disease symptom reduction (%) vs. Untreated,Fusarium graminearum,94%
same,activity (%),Fusarium virguliforme,89%
Cn1cc(C(=O)Nc2cccc3c2C2CCC3C2=C(Cl)Cl)c(C(F)F)n1 (stereo not shown) [SOLATENOL],disease symptom reduction (%) vs. Untreated,"Zymoseptoria tritici [1]; 1 d preventive, 1 g/ha",0%
same,disease symptom reduction (%) vs. Untreated,"Zymoseptoria tritici [1]; 1 d preventive, 3 g/ha",0%
same,disease symptom reduction (%) vs. Untreated,"Zymoseptoria tritici [1]; 1 d preventive, 9 g/ha",70%
same,disease symptom reduction (%) vs. Untreated,"Zymoseptoria tritici [1]; 1 d preventive, 27 g/ha",97%
same,disease symptom reduction (%) vs. Untreated,"Zymoseptoria tritici [1]; 3 d curative, 1 g/ha",4%
same,disease symptom reduction (%) vs. Untreated,"Zymoseptoria tritici [1]; 3 d curative, 3 g/ha",0%
same,disease symptom reduction (%) vs. Untreated,"Zymoseptoria tritici [1]; 3 d curative, 9 g/ha",61%
same,disease symptom reduction (%) vs. Untreated,"Zymoseptoria tritici [1]; 3 d curative, 27 g/ha",82%
same,disease symptom reduction (%) vs. Untreated,"Puccinia recondita [2]; 1 d preventive, 1 g/ha, 10DAI",49%
same,disease symptom reduction (%) vs. Untreated,"Puccinia recondita [2]; 1 d preventive, 3 g/ha, 10DAI",88%
same,disease symptom reduction (%) vs. Untreated,"Puccinia recondita [2]; 1 d preventive, 9 g/ha, 10DAI",96%
same,disease symptom reduction (%) vs. Untreated,"Puccinia recondita [2]; 1 d preventive, 27 g/ha, 10DAI",99%
same,disease symptom reduction (%) vs. Untreated,"Puccinia recondita [2]; 3 d curative, 1 g/ha, 11DAI",47%
same,disease symptom reduction (%) vs. Untreated,"Puccinia recondita [2]; 3 d curative, 3 g/ha, 11DAI",58%
same,disease symptom reduction (%) vs. Untreated,"Puccinia recondita [2]; 3 d curative, 9 g/ha, 11DAI",84%
same,disease symptom reduction (%) vs. Untreated,"Puccinia recondita [2]; 3 d curative, 27 g/ha, 11DAI",92%
same,disease symptom reduction (%) vs. Untreated,"Puccinia striiformis; 1 d preventive, 0.9 g/ha, 22DAI",0%
same,disease symptom reduction (%) vs. Untreated,"Puccinia striiformis; 1 d preventive, 2.8 g/ha, 22DAI",76%
same,disease symptom reduction (%) vs. Untreated,"Puccinia striiformis; 1 d preventive, 8 g/ha, 22DAI",90%
same,disease symptom reduction (%) vs. Untreated,"Puccinia striiformis; 1 d preventive, 25 g/ha, 22DAI",100%
same,disease symptom reduction (%) vs. Untreated,"Puccinia striiformis; 1 d preventive, 75 g/ha, 22DAI",100%
same,disease symptom reduction (%) vs. Untreated,"Puccinia striiformis; 4 d curative, 0.9 g/ha, 21DAI",84%
same,disease symptom reduction (%) vs. Untreated,"Puccinia striiformis; 4 d curative, 2.8 g/ha, 21DAI",93%
same,disease symptom reduction (%) vs. Untreated,"Puccinia striiformis; 4 d curative, 8 g/ha, 21DAI",95%
same,disease symptom reduction (%) vs. Untreated,"Puccinia striiformis; 4 d curative, 25 g/ha, 21DAI",99%
same,disease symptom reduction (%) vs. Untreated,"Puccinia striiformis; 4 d curative, 75 g/ha, 21DAI",100%
same,disease symptom reduction (%) vs. Untreated,[3],54%
same,disease symptom reduction (%) vs. Untreated,Alternaria solani; 1 g/ha,40%
same,disease symptom reduction (%) vs. Untreated,Alternaria solani; 2 g/ha,53%
same,disease symptom reduction (%) vs. Untreated,Alternaria solani; 6 g/ha,80%
same,disease symptom reduction (%) vs. Untreated,Alternaria solani; 20 g/ha,90%
same,disease symptom reduction (%) vs. Untreated,Alternaria solani; 60 g/ha,100%
same,disease symptom reduction (%) vs. Untreated,[4]; 1 g/ha,53%
same,disease symptom reduction (%) vs. Untreated,[4]; 2 g/ha,67%
same,disease symptom reduction (%) vs. Untreated,[4]; 6 g/ha,60%
same,disease symptom reduction (%) vs. Untreated,[4]; 20 g/ha,90%
same,disease symptom reduction (%) vs. Untreated,[4]; 60 g/ha,100%
same,disease symptom reduction (%) vs. Untreated,Mycosphaerella arachidis; 1 g/ha,56%
same,disease symptom reduction (%) vs. Untreated,Mycosphaerella arachidis; 2 g/ha,67%
same,disease symptom reduction (%) vs. Untreated,Mycosphaerella arachidis; 6 g/ha,89%
same,disease symptom reduction (%) vs. Untreated,Mycosphaerella arachidis; 20 g/ha,100%
same,disease symptom reduction (%) vs. Untreated,Mycosphaerella arachidis; 60 g/ha,98%
same,disease symptom reduction (%) vs. Untreated,Ramularia collo-cygni; 4 g/ha,6%
same,disease symptom reduction (%) vs. Untreated,Ramularia collo-cygni; 12 g/ha,32%
same,disease symptom reduction (%) vs. Untreated,Ramularia collo-cygni; 40 g/ha,80%
same,disease symptom reduction (%) vs. Untreated,Ramularia collo-cygni; 120 g/ha,97%
same,disease symptom reduction (%) vs. Untreated,Parastagonospora nodorum; 4 g/ha,16%
same,disease symptom reduction (%) vs. Untreated,Parastagonospora nodorum; 12 g/ha,44%
same,disease symptom reduction (%) vs. Untreated,Parastagonospora nodorum; 40 g/ha,81%
same,disease symptom reduction (%) vs. Untreated,Parastagonospora nodorum; 120 g/ha,85%
same,disease symptom reduction (%) vs. Untreated,Rhynchosporium secalis; 4 g/ha,31%
same,disease symptom reduction (%) vs. Untreated,Rhynchosporium secalis; 12 g/ha,60%
same,disease symptom reduction (%) vs. Untreated,Rhynchosporium secalis; 40 g/ha,94%
same,disease symptom reduction (%) vs. Untreated,Rhynchosporium secalis; 120 g/ha,100%
same,disease cover on leaf (%),"Zymoseptoria tritici [5]; leaf 1, not treated",100%
same,disease symptom reduction (%) vs. Untreated,"Zymoseptoria tritici [5]; leaf 1, not treated",0%
same,disease cover on leaf (%),"Zymoseptoria tritici [5]; leaf 2 - base, not treated",89%
same,disease symptom reduction (%) vs. Untreated,"Zymoseptoria tritici [5]; leaf 2 - base, not treated",8%
same,disease cover on leaf (%),"Zymoseptoria tritici [5]; leaf 2 - middle, treated",0%
same,disease symptom reduction (%) vs. Untreated,"Zymoseptoria tritici [5]; leaf 2 - middle, treated",100%
same,disease cover on leaf (%),"Zymoseptoria tritici [5]; leaf 2 - tip, not treated",0%
same,disease symptom reduction (%) vs. Untreated,"Zymoseptoria tritici [5]; leaf 2 - tip, not treated",100%
same,disease cover on leaf (%),"Zymoseptoria tritici [5]; leaf 3, not treated",42%
same,disease symptom reduction (%) vs. Untreated,"Zymoseptoria tritici [5]; leaf 3, not treated",15%
same,disease cover on leaf (%),"Puccinia recondita [6]; leaf 1, not treated",80%
same,disease symptom reduction (%) vs. Untreated,"Puccinia recondita [6]; leaf 1, not treated",11%
same,disease cover on leaf (%),"Puccinia recondita [6]; leaf 2 - base, not treated",81%
same,disease symptom reduction (%) vs. Untreated,"Puccinia recondita [6]; leaf 2 - base, not treated",0%
same,disease cover on leaf (%),"Puccinia recondita [6]; leaf 2 - middle, treated",0%
same,disease symptom reduction (%) vs. Untreated,"Puccinia recondita [6]; leaf 2 - middle, treated",100%
same,disease cover on leaf (%),"Puccinia recondita [6]; leaf 2 - tip, not treated",2%
same,disease symptom reduction (%) vs. Untreated,"Puccinia recondita [6]; leaf 2 - tip, not treated",98%
same,disease cover on leaf (%),"Puccinia recondita [6]; leaf 3, not treated",31%
same,disease symptom reduction (%) vs. Untreated,"Puccinia recondita [6]; leaf 3, not treated",16%
